The supplement of paper PMC10307832

How the values were obtained:
Assay in all cases: relative viability (nuclei count vs DMSO), 5 days (fraction); higher = more cells survive
[1] = test system: NCI-H2405
Procedure, shortened: (§1)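 Lung cancer cell lines were pin-tool dosed in 1536-well plates on the day after seeding, with either a lone drug or a fixed anchor-drug dose plus five library-drug doses (not always all listed) in √10 steps. Nuclei were counted on 4× images after 5 days. Relative viability is the ratio of treated-well to vehicle-well nuclei counts, with each value a median of duplicate plates.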

[2] = test system: LU99A
Procedure, shortened: as §1

[3] = test system: NCI-H3122
Procedure, shortened: as §1

[4] = test system: NCI-H1666
Procedure, shortened: as §1

[5] = test system: HCC-15
Procedure, shortened: as §1

[6] = test system: NCI-H358
Procedure, shortened: as §1

[7] = test system: NCI-H1975
Procedure, shortened: as §1

[8] = test system: HARA
Procedure, shortened: as §1

[9] = test system: NCI-H2228
Procedure, shortened: as §1

[10] = test system: IA-LM
Procedure, shortened: as §1

[11] = test system: NCI-H1792
Procedure, shortened: as §1

[12] = test system: NCI-H2347
Procedure, shortened: as §1

[13] = test system: NCI-H1793
Procedure, shortened: as §1

[14] = test system: NCI-H1703
Procedure, shortened: as §1

[15] = test system: NCI-H460
Procedure, shortened: as §1

[16] = test system: LXF-289
Procedure, shortened: as §1

[17] = test system: PC-3 [JPC-3]
Procedure, shortened: as §1

[18] = test system: HCC-366
Procedure, shortened: as §1

[19] = test system: NCI-H1944
Procedure, shortened: as §1

[20] = test system: NCI-H838
Procedure, shortened: as §1

[21] = test system: SW 1573
Procedure, shortened: as §1

[22] = test system: NCI-H650
Procedure, shortened: as §1

[23] = test system: NCI-H1734
Procedure, shortened: as §1

[24] = test system: NCI-H661
Procedure, shortened: as §1

Compound `Nc1cccc2c1CN(C1CCC(=O)NC1=O)C2=O` (centres undefined) [Lenalidomide] + C[C@]1(O)C[C@@H](c2nc(-c3ccc4ccc(-c5ccccc5)nc4c3)c3c(N)nccn32)C1 [Linsitinib] (partner 1 µM) has a relative viability ([1]; first compound 0.253 µM) of 0.816, a relative viability ([1]; first compound 0.8 µM) of 1.05 and a relative viability ([1]; first compound 2.53 µM) of 0.9. The relative viability ([1]; first compound 8 µM) was 0.675, the relative viability ([2]; first compound 0.253 µM) was 0.51 and the relative viability ([2]; first compound 0.8 µM) was 0.554. The relative viability ([2]; first compound 2.53 µM) was 0.466, the relative viability ([2]; first compound 8 µM) was 0.352 and the relative viability ([3]; first compound 0.253 µM) was 1.02. The relative viability ([3]; first compound 0.8 µM) was 1.04, the relative viability ([3]; first compound 2.53 µM) was 0.996 and the relative viability ([3]; first compound 8 µM) was 0.998. The relative viability ([4]; first compound 0.253 µM) was 0.921, the relative viability ([4]; first compound 0.8 µM) was 0.652 and the relative viability ([4]; first compound 2.53 µM) was 0.853. It also gave a relative viability ([4]; first compound 8 µM) of 0.833, a relative viability ([5]; first compound 0.253 µM) of 0.91 and a relative viability ([5]; first compound 2.53 µM) of 0.975. The relative viability ([5]; first compound 8 µM) was 0.895, the relative viability ([6]; first compound 0.253 µM) was 0.751 and the relative viability ([6]; first compound 0.8 µM) was 0.752. For the same compound, the relative viability ([6]; first compound 2.53 µM) was 0.773, the relative viability ([6]; first compound 8 µM) was 0.703 and the relative viability ([7]; first compound 0.253 µM) was 1.15. The relative viability ([7]; first compound 0.8 µM) was 1, the relative viability ([7]; first compound 2.53 µM) was 1.2 and the relative viability ([7]; first compound 8 µM) was 1.12. For the same compound, the relative viability ([8]; first compound 0.253 µM) was 0.992, the relative viability ([8]; first compound 0.8 µM) was 0.91 and the relative viability ([8]; first compound 2.53 µM) was 1.18. It also gave a relative viability ([8]; first compound 8 µM) of 0.906, a relative viability ([9]; first compound 0.253 µM) of 0.598 and a relative viability ([9]; first compound 0.8 µM) of 0.774. For the same compound, the relative viability ([9]; first compound 2.53 µM) was 0.802, the relative viability ([9]; first compound 8 µM) was 0.639 and the relative viability ([10]; first compound 0.253 µM) was 0.605. It also gave a relative viability ([10]; first compound 0.8 µM) of 0.468, a relative viability ([10]; first compound 2.53 µM) of 0.667 and a relative viability ([10]; first compound 8 µM) of 0.49. It also gave a relative viability ([11]; first compound 0.253 µM) of 0.53, a relative viability ([11]; first compound 0.8 µM) of 0.457 and a relative viability ([11]; first compound 2.53 µM) of 0.509. For the same compound, the relative viability ([11]; first compound 8 µM) was 0.402, the relative viability ([12]; first compound 0.253 µM) was 0.952 and the relative viability ([12]; first compound 0.8 µM) was 1.03. The relative viability ([12]; first compound 2.53 µM) was 1, the relative viability ([12]; first compound 8 µM) was 0.808 and the relative viability ([13]; first compound 0.253 µM) was 1.02. For the same compound, the relative viability ([13]; first compound 0.8 µM) was 0.728, the relative viability ([13]; first compound 2.53 µM) was 1.13 and the relative viability ([13]; first compound 8 µM) was 0.512. The relative viability ([14]; first compound 0.253 µM) was 0.566, the relative viability ([14]; first compound 0.8 µM) was 1.01 and the relative viability ([14]; first compound 2.53 µM) was 0.956. It also gave a relative viability ([14]; first compound 8 µM) of 0.431, a relative viability ([15]; first compound 0.253 µM) of 0.777 and a relative viability ([15]; first compound 0.8 µM) of 0.821. It also gave a relative viability ([15]; first compound 2.53 µM) of 1.25, a relative viability ([15]; first compound 8 µM) of 0.622 and a relative viability ([16]; first compound 0.253 µM) of 0.961. For the same compound, the relative viability ([16]; first compound 0.8 µM) was 0.994, the relative viability ([16]; first compound 2.53 µM) was 1.01 and the relative viability ([16]; first compound 8 µM) was 1.03. It also gave a relative viability ([17]; first compound 0.253 µM) of 0.969, a relative viability ([17]; first compound 0.8 µM) of 0.923 and a relative viability ([17]; first compound 2.53 µM) of 1. For the same compound, the relative viability ([17]; first compound 8 µM) was 1.09, the relative viability ([18]; first compound 0.253 µM) was 0.689 and the relative viability ([18]; first compound 0.8 µM) was 0.548. The relative viability ([18]; first compound 2.53 µM) was 0.601, the relative viability ([18]; first compound 8 µM) was 0.424 and the relative viability ([19]; first compound 0.253 µM) was 1.15. It also gave a relative viability ([19]; first compound 0.8 µM) of 1.27, a relative viability ([19]; first compound 2.53 µM) of 1.24 and a relative viability ([19]; first compound 8 µM) of 0.948. The relative viability ([20]; first compound 0.253 µM) was 1.02, the relative viability ([20]; first compound 0.8 µM) was 0.98 and the relative viability ([20]; first compound 2.53 µM) was 1.13. It also gave a relative viability ([20]; first compound 8 µM) of 0.968, a relative viability ([21]; first compound 0.253 µM) of 0.772 and a relative viability ([21]; first compound 0.8 µM) of 0.866. It also gave a relative viability ([21]; first compound 2.53 µM) of 0.792, a relative viability ([21]; first compound 8 µM) of 0.791 and a relative viability ([22]; first compound 0.253 µM) of 0.929. For the same compound, the relative viability ([22]; first compound 2.53 µM) was 1, the relative viability ([22]; first compound 8 µM) was 0.727 and the relative viability ([23]; first compound 0.253 µM) was 0.878. The relative viability ([23]; first compound 0.8 µM) was 1, the relative viability ([23]; first compound 2.53 µM) was 0.934 and the relative viability ([23]; first compound 8 µM) was 0.688. The relative viability ([24]; first compound 0.253 µM) was 0.451, the relative viability ([24]; first compound 0.8 µM) was 0.526 and the relative viability ([24]; first compound 2.53 µM) was 0.59. It also gave a relative viability ([24]; first compound 8 µM) of 0.539.
